Measured values published in patent US8765773B2, “Substituted hydroxamic acids and uses thereof” (Millennium Pharmaceuticals, Inc., priority 2010, dated 2014).

The compounds below were run against T1, purified human HDAC6 (Homo sapiens, UniProt Q9UBN7) (assay: HDAC6 Enzyme Assay). Details: compound concentration 0.37 μM, read-out: Percent Inhibition.
T1 construct: purchased BPS Bioscience 5006
T1 sequence (Q9UBN7 1-1215): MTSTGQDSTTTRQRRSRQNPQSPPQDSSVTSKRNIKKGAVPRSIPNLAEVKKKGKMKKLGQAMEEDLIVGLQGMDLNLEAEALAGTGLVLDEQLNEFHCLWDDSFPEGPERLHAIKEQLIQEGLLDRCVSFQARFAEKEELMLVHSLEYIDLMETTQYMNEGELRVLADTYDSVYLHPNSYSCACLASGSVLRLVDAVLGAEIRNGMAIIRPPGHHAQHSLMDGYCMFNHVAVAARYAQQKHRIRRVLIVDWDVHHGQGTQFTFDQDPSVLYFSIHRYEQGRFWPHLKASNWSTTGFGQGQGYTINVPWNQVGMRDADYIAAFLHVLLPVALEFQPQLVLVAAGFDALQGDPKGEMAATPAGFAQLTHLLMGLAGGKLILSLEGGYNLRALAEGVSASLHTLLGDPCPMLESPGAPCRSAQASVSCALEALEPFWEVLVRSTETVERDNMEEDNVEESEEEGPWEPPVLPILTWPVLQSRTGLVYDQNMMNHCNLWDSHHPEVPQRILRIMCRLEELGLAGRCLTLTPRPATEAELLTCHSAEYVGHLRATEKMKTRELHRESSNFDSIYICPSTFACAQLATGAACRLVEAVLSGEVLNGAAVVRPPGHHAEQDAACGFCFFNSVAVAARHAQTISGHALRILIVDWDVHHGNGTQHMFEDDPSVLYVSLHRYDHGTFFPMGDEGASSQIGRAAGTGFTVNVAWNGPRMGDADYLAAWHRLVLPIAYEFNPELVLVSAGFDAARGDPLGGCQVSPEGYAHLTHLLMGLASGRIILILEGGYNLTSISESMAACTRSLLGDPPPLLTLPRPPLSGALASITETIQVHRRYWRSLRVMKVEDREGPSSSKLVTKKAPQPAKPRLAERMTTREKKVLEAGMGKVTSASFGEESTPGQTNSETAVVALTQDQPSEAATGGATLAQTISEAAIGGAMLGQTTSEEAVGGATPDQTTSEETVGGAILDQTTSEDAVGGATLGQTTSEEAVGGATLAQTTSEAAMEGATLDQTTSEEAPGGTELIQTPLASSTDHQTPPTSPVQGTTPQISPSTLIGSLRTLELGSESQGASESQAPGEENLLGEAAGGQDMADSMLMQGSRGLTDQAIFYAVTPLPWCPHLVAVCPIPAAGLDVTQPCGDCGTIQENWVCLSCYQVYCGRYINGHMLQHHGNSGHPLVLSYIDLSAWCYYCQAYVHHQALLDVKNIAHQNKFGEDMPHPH
Format: biochemical
Outline: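 Readout is AMC fluorescence (Ex 340 nm, Em 460 nm) after trypsin cleavage of the deacetylated Ac-Arg-Gly-Lys(Ac)-AMC product. Reaction: purified human HDAC6, compound or vehicle, 1 hour, 30° C, quenched by trichostatin A. Single-concentration percent inhibition or IC50 calculated versus DMSO-treated samples.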

Question: For O=C(NO)c1ccc2ncn(CCc3cccc(-c4cccc(C(=O)NC5CC5)c4)c3)c(=O)c2c1 [Compound I-291, 3-(2-{3′-[(cyclopropylamino)carbonyl]biphenyl-3-yl}ethyl)-N-hydroxy-4-oxo-3,4-dihydroquinazoline-6-carboxamide], which inhibition at 0.37 µM is on record?
Answer: 89.6%

Question: Which inhibition at 0.37 µM does the source give for CC(c1ccccc1C(F)(F)F)n1ccc2ccc(C(=O)NO)cc2c1=O (centres unmarked) [Compound I-224, N-hydroxy-1-oxo-2-{1-[2-(trifluoromethyl)phenyl]ethyl}-1,2-dihydroisoquinoline-7-carboxamide] here?
Answer: 96.3%

Question: O=C(NO)c1ccc2ccn(CCC(c3ccc(Cl)cc3)C3CCNCC3)c(=O)c2c1 (centres unmarked) [Compound I-103, 2-[3-(4-chlorophenyl)-3-piperidin-4-ylpropyl]-N-hydroxy-1-oxo-1,2-dihydroisoquinoline-7-carboxamide] was tested. Which inhibition at 0.37 µM did it give?
Answer: 100%

Question: Which inhibition at 0.37 µM does the source give for Nc1cccc(-c2cccc(Cn3cnc4ccc(C(=O)NO)cc4c3=O)c2)c1 [Compound I-177, 3-[(3′-aminobiphenyl-3-yl)methyl]-N-hydroxy-4-oxo-3,4-dihydroquinazoline-6-carboxamide] here?
Answer: 93.2%

Question: Which inhibition at 0.37 µM does the source give for Cn1c(-c2nc3cc(C(=O)NO)ccc3c(=O)n2Cc2ccc(C(F)(F)F)cc2)cc2ccccc21 [Compound I-166, N-hydroxy-2-(1-methyl-1H-indol-2-yl)-4-oxo-3-[4-(trifluoromethyl)benzyl]-3,4-dihydroquinazoline-7-carboxamide] here?
Answer: 78.8%

Question: How did the inhibition at 0.37 µM turn out when CC(c1ccccc1)n1cnc2ccc(C(=O)NO)cc2c1=O (centres unmarked) [Compound I-12, N-hydroxy-4-oxo-3-(1-phenylethyl)-3,4-dihydroquinazoline-6-carboxamide] was run?
Answer: 99.2%

Question: How did the inhibition at 0.37 µM turn out when Cc1noc(C)c1-c1cccc(CCn2cnc3ccc(C(=O)NO)cc3c2=O)c1 [Compound I-336, 3-{2-[3-(3,5-dimethylisoxazol-4-yl)phenyl]ethyl}-N-hydroxy-4-oxo-3,4-dihydroquinazoline-6-carboxamide] was run?
Answer: 90.5%

Same assay, conditions: compound concentration 0.412 μM, read-out: Percent Inhibition

Question: With O=C(NO)c1ccc2ccn(CCNCc3cccc(C(F)(F)F)c3)c(=O)c2c1 [Compound I-77, N-hydroxy-1-oxo-2-(2-{[3-(trifluoromethyl)benzyl]amino}ethyl)-1,2-dihydroisoquinoline-7-carboxamide] as the compound, how does the inhibition at 0.412 µM read?
Answer: 91%

Question: For Nc1nc2cc(C(=O)NO)ccc2c(=O)[nH]1 [Compound I-199, 2-amino-N-hydroxy-4-oxo-3,4-dihydroquinazoline-7-carboxamide], which inhibition at 0.412 µM is on record?
Answer: 42.4%

Question: How did the inhibition at 0.412 µM turn out when Cc1ccc(Cn2ccc3ccc(C(=O)NO)cc3c2=O)cc1F [Compound I-54, 2-(3-fluoro-4-methylbenzyl)-N-hydroxy-1-oxo-1,2-dihydroisoquinoline-7-carboxamide] was run?
Answer: 94.5%

Question: Which inhibition at 0.412 µM does the source give for CCN(CC)c1cccc(OCCn2ccc3ccc(C(=O)NO)cc3c2=O)c1 [Compound I-159, 2-{2-[3-(diethylamino)phenoxy]ethyl}-N-hydroxy-1-oxo-1,2-dihydroisoquinoline-7-carboxamide] here?
Answer: 91.3%

Question: Which inhibition at 0.412 µM does the source give for O=C(NO)c1ccc2cc[nH]c(=O)c2c1 [Compound I-232, N-hydroxy-1-oxo-1,2-dihydroisoquinoline-7-carboxamide] here?
Answer: 70.9%

Question: For O=C(NO)c1ccc2ncn(Cc3csc4ccc(Cl)cc34)c(=O)c2c1 [Compound I-164, 3-[(5-chloro-1-benzothien-3-yl)methyl]-N-hydroxy-4-oxo-3,4-dihydroquinazoline-6-carboxamide], which inhibition at 0.412 µM is on record?
Answer: 94.1%

Question: Which inhibition at 0.412 µM does the source give for O=C(NO)c1ccc2ncn(CC3CC3)c(=O)c2c1 [Compound I-25, 3-(cyclopropylmethyl)-N-hydroxy-4-oxo-3,4-dihydroquinazoline-6-carboxamide] here?
Answer: 84.7%

Question: With O=C(NO)c1ccc2c(=O)[nH]c(COc3cc(Cl)cc(Cl)c3)nc2c1 [Compound I-145, 2-[(3,5-dichlorophenoxy)methyl]-N-hydroxy-4-oxo-3,4-dihydroquinazoline-7-carboxamide] as the compound, how does the inhibition at 0.412 µM read?
Answer: 76.7%

Question: CC(C)(C)OC(=O)N1CCC(Cn2ccc3ccc(C(=O)NO)cc3c2=O)CC1 [Compound I-184, tert-butyl 4-{[7-[(hydroxyamino)carbonyl]-1-oxoisoquinolin-2(1H)-yl]methyl}piperidine-1-carboxylate] was tested. Which inhibition at 0.412 µM did it give?
Answer: 88.9%

Question: COc1ccc(OCCCn2ccc3ccc(C(=O)NO)cc3c2=O)cc1 [Compound I-3, N-hydroxy-2-[3-(4-methoxyphenoxy)propyl]-1-oxo-1,2-dihydroisoquinoline-7-carboxamide] was tested. Which inhibition at 0.412 µM did it give?
Answer: 95.8%

Question: How did the inhibition at 0.412 µM turn out when CC1(C)CCC(C)(C)c2cc(Cn3cnc4ccc(C(=O)NO)cc4c3=O)ccc21 [Compound I-112, N-hydroxy-4-oxo-3-[(5,5,8,8-tetramethyl-5,6,7,8-tetrahydronaphthalen-2-yl)methyl]-3,4-dihydroquinazoline-6-carboxamide] was run?
Answer: 95.2%

Question: O=C(NO)c1ccc2ccn(Cc3ccc(F)cc3)c(=O)c2c1 [Compound I-76, 2-(4-fluorobenzyl)-N-hydroxy-1-oxo-1,2-dihydroisoquinoline-7-carboxamide] was tested. Which inhibition at 0.412 µM did it give?
Answer: 93.8%

Question: For COc1ccc(NCCn2ccc3ccc(C(=O)NO)cc3c2=O)cc1 [Compound I-97, N-hydroxy-2-{2-[(4-methoxyphenyl)amino]ethyl}-1-oxo-1,2-dihydroisoquinoline-7-carboxamide], which inhibition at 0.412 µM is on record?
Answer: 79.1%

Question: For Cc1nc(-c2ccccc2OCCCn2ccc3ccc(C(=O)NO)cc3c2=O)cs1 [Compound I-183, N-hydroxy-2-{3-[2-(2-methyl-1,3-thiazol-4-yl)phenoxy]propyl}-1-oxo-1,2-dihydroisoquinoline-7-carboxamide], which inhibition at 0.412 µM is on record?
Answer: 67.4%

Question: For Cc1nc2cc(C(=O)NO)ccc2c(=O)[nH]1 [Compound I-18, N-hydroxy-2-methyl-4-oxo-3,4-dihydroquinazoline-7-carboxamide], which inhibition at 0.412 µM is on record?
Answer: 68.9%

Question: Which inhibition at 0.412 µM does the source give for Cn1c(=O)[nH]c2cc(C(=O)NO)ccc2c1=O [Compound I-286, N-hydroxy-3-methyl-2,4-dioxo-1,2,3,4-tetrahydroquinazoline-7-carboxamide] here?
Answer: 21.2%

Question: For O=C(NO)c1ccc2ccn(Cc3cc(F)cc(F)c3)c(=O)c2c1 [Compound I-119, 2-(3,5-difluorobenzyl)-N-hydroxy-1-oxo-1,2-dihydroisoquinoline-7-carboxamide], which inhibition at 0.412 µM is on record?
Answer: 95.5%

Question: O=C(NO)c1ccc2ccn(Cc3cccc(Oc4ccc(F)cc4)c3)c(=O)c2c1 [Compound I-98, 2-[3-(4-fluorophenoxy)benzyl]-N-hydroxy-1-oxo-1,2-dihydroisoquinoline-7-carboxamide] was tested. Which inhibition at 0.412 µM did it give?
Answer: 91%

Question: For O=C(NO)c1ccc2ncn(Cc3cccc(C(F)(F)F)c3)c(=O)c2c1 [Compound I-185, N-hydroxy-4-oxo-3-[3-(trifluoromethyl)benzyl]-3,4-dihydroquinazoline-6-carboxamide], which inhibition at 0.412 µM is on record?
Answer: 95.5%

Question: Which inhibition at 0.412 µM does the source give for Cn1c(=O)[nH]c2ccc(C(=O)NO)cc2c1=O [Compound I-169, N-hydroxy-3-methyl-2,4-dioxo-1,2,3,4-tetrahydroquinazoline-6-carboxamide] here?
Answer: 62.8%

Question: With O=C(NO)c1ccc2c(=O)[nH]c(CNCc3ccc(Cl)cc3)nc2c1 [Compound I-92, 2-{[(4-chlorobenzyl)amino]methyl}-N-hydroxy-4-oxo-3,4-dihydroquinazoline-7-carboxamide] as the compound, how does the inhibition at 0.412 µM read?
Answer: 90.9%

Question: For O=C(NO)c1ccc2ncn(Cc3cccc(-c4ccncc4)c3)c(=O)c2c1 [Compound I-128, N-hydroxy-4-oxo-3-(3-pyridin-4-ylbenzyl)-3,4-dihydroquinazoline-6-carboxamide], which inhibition at 0.412 µM is on record?
Answer: 95.9%
